Patent publication US10894777B2, “TG2 inhibitor piperazine compounds and uses thereof” (UNIVERSITY OF OTTAWA, priority 2016, dated 2021)

Experiments:
TG2 level = TG2 level immunoblot, SCC-13 spheroids; format: cell-based, human; conditions: 20 μM, 48 hours
Description: In (A), SCC-13 cells (40,000) were plated in non-adherent six well dishes, grown for 8 days in spheroid medium, and then NC9 was added and spheroid number was monitored at 0-48 hours. In (B), spheroids were grown for 10 days, treated for 48 hours with indicated level of NC9 and photographed. In (C), SCC-13 cells were plated at 40,000 cells per well in non-adherent six well dishes and after 10 days the spheroids were treated with 0-20 μM NC9 for 0-72 hours before trypan blue exclusion viability assay. In (D), SCC-13 spheroids were grown for 10 days, treated with 0 or 20 μM NC9 for 48 hours, and TG2 level was assayed by immunoblot. In (E), SCC-13 cells were grown as monolayers in spheroid medium and TG2 activity was monitored by FC incorporation assay as outlined in the Materials and Methods for Example 7. In (F), SCC-13 cell 8 day spheroids were treated with […] NC9 and cells were harvested at the indicated times for immunoblot detection of procaspase 3 and cleaved caspase 3. In all panels, the values are mean±SEM, n=3, p<0.05.

U251 cells = assay: Agarose colony formation assay, U251 cells; format: cell-based, human; conditions: 10 μM, 2 weeks
Description: Agarose colony formation assay. Agarose colony formation assay was conducted as described (Horman, S. R. et al., J. Biomol. Screen 18(10):1298-308, 2013; Zhang, K. et al., Tumour Biol. 35(3):2537-48, 2014) using 6-well plates and 5,000 cells in each well. 10 μM NC9 or DMSO was added to every layer at the start of the experiments. 2 mL liquid MEM containing 10 μM NC9 or DMSO was used to cover the agarose and it was changed 3 times a week. Colony growth was monitored every day and at the end of 10-15 days, the colonies were fixed with 4% paraformaldehyde, stained with 0.005% crystal violet, washed with PBS twice and 40 random pictures were taken from each treatment group. A person blinded for the treatments measured the area of the colonies using ImageJ program and the volumes were calculated from the area data under the assumption that the colonies are perfect spheres. The volumes were used to compare the effect of NC9 on colony growth.

SCC-13 cells = assay: EMT marker immunoblot, SCC-13 cells; format: cell-based, human; conditions: 20 μM, 48 h
Description: In (A), SCC-13 cells (500,000) were plated in monolayer culture in spheroid medium in 100 mm dishes. Fresh spheroid medium containing 0 or 20 μM NC9 was added at time zero and again at 24 h. After 48 h lysates were collected for electrophoresis and immunoblot. In (B), SCC-13 cells were pretreated with 0 or 20 μM NC9 for 2 h and then harvested and plated (25,000 cells) in the upper chamber in 1 mL of medium, above a matrigel-coated membrane, in a Millicell chamber. After 30 h. the inside of membrane was harvested and the nuclei of migrated cells on the bottom of the membrane were counted using an inverted fluorescent microscope. The values are mean±SEM, n=3 (p, 0.05). In (C), SCC-13 (2 million) cells were plated in spheroid medium in 100 mm dishes and grown as monolayer cultures. Confluent monolayers were then scratched with a 10-μL pipette tip and wound width was monitored for 0-18 h.
Immunoblot. […] Blots were rinsed and then incubated with secondary antibody (diluted 1:5000) for 2 h. Secondary antibody binding was visualized using ECL Prime chemiluminescence detection technology (Amersham).

TG2 = target: T1, TG2 (Homo sapiens, UniProt P21980); assay: Inhibition irreversibility (filtration, dilution, activity assay); format: biochemical; conditions: after filtration over 10-kDa membrane and dilution
T1 sequence (P21980 1-687): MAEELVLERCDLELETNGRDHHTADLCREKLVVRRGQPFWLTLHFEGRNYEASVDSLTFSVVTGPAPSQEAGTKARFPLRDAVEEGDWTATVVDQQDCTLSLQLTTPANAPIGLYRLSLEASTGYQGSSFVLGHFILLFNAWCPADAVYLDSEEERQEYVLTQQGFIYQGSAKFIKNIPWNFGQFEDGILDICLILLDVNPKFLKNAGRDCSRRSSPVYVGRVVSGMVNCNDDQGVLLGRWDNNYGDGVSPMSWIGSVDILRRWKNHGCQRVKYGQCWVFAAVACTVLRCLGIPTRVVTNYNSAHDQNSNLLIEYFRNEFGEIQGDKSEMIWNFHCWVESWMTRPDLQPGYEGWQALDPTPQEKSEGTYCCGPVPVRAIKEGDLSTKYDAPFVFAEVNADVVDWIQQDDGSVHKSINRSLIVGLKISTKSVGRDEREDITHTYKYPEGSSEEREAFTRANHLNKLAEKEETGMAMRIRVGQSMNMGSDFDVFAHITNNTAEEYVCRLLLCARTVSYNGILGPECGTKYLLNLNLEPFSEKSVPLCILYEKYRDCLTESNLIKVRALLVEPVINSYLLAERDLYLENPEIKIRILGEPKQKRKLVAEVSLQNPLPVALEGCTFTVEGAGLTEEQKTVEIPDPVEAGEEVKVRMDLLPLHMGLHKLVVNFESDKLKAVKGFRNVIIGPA
Source text: Inhibition irreversibility.

Row | SMILES | TG2 level (TG2 level) | colony growth, U251 (U251 cells) | E-cadherin level (SCC-13 cells) | EMT transcription factor and EMT marker levels (SCC-13 cells) | recovered activity of inhibited hTG2 (TG2)
1 | C=CC(=O)NCCCC[C@H](NC(=O)OCc1ccccc1)C(=O)NCCOCCOCCNS(=O)(=O)c1cccc2c(N(C)C)cccc12 [NC9] | not associated with reduced TG2 level | significantly reduced the growth | elevated | reduced EMT transcription factor (Twist, Snail, Slug) and EMT marker (vimentin, fibronectin, N-cadherin, HIF-1α) levels | –
2 | C=CC(=O)NCCCC[C@H](NC(=O)OCc1ccccc1)C(=O)N1CCN(S(=O)(=O)c2cccc3c(N(C)C)cccc23)CC1 [VA4, (S)-benzyl(6-acrylamido-1-(4-((5-(dimethylamino)naphthalen-1-yl)sulfonyl)piperazin-1-yl)-1-oxohexan-2-yl)carbamate] | – | – | – | – | no recovered activity
